Laboratory results taken from paper PMC9490236, “Accurate de novo design of membrane-traversing macrocycles” (Cell, 2022).
Where “and” joins values, the source holds several entries; their conditions need not be identical. Equal entries are not always repeated. Where two headings read alike, the source gives them in different places. Where a SMILES comes first, the peptide text is derived from it. [ ]: non-standard residue; d: D form. dNMeI = CC[C@@H](C)[C@@H](NC)C(=O)O; NMeL = CN[C@@H](CC(C)C)C(=O)O

Assay: Pharmacokinetics and oral bioavailability of D11.3 in male Swiss albino mice (IV, PO, SQ)
Assay type: in vivo
Conditions: for MRT last: read-out: MRT0-last
Protocol: In vivo bioavailability assays were conducted in mice and rats. D8.3.p1 and D10.1 were studied in female Balb/C mice by van Voorhis group at University of Washington. D11.2 was evaluated in Sprague Dawley (SD) rats by Robert Griffin’s group at Takeda Pharmaceuticals. D11.3 was studied in the male swiss albino mice by the contract research organization, GVK Biosciences Pvt. Ltd., Hyderabad, India. All animals used in these studies were handled in strict accordance with practices made to minimize suffering. All animal experiments conducted at the University of Washington, USA, and Takeda Pharmaceuticals, USA were approved by the Institutional Animal Care and Use Committee. Animal studies at GVK Biosciences were reviewed and approved by the Institutional Animal Ethics Committee of GVK Biosciences.
We selected four designed macrocycles with diverse structures and in vitro rates of permeability for in vivo oral bioavailability studies in the rodent models. Due to the intensive resource requirements for such studies, these studies were conducted by three different research groups. D8.3.p1 and D10.1 were studied in female Balb/C mice by van Voorhis group at University of Washington. D11.2 was evaluated in Sprague Dawley (SD) rats by Robert Griffin’s group at Takeda Pharmaceuticals. D11.3 was studied in the male swiss albino mice by the contract research organization, GVK Biosciences Pvt. Ltd., Hyderabad, India.
Pharmacokinetic properties of D11.3 were evaluated by the contract research organization, GVK Bio in Swiss Albino male mice after dosing the peptides through oral gavage (PO), subcutaneous (SQ), and intravenous (IV) routes. Plasma samples were collected at multiple time points up to 24 hours. Animals were dosed with 27 gauge needle through tail vein for IV, gastric gavage needle for PO, and 27 gauge needle on dorsal side for SQ. Plasma concentrations were determined using LC-MS/MS based quantification. Pharmacokinetic parameters were determined using non-compartmental analysis with Phoenix software version 8.1.
Dosing vehicle: DMSO (10%) + 10% solutol in PBS (90%) (IV, PO, SQ)
Dose volume: […] (PO, SQ); […] (IV)
Dose: 10 mg/kg (PO) 1 mg/kg (IV), 5mg/kg (SQ)

[1] = male, Swiss albino, mouse, plasma, IV 1.00 mg/kg
[2] = male, Swiss albino, mouse, plasma, PO 10.00 mg/kg
[3] = male, Swiss albino, mouse, plasma, SC 5.00 mg/kg

CC[C@@H](C)[C@H]1NC(=O)[C@H]([C@@H](C)CC)NC(=O)[C@H](CC(C)C)N(C)C(=O)[C@H]2CCCN2C(=O)[C@@H]([C@H](C)CC)NC(=O)[C@@H]([C@H](C)CC)N(C)C(=O)[C@H](CC(C)C)NC(=O)[C@H]2CCCN2C(=O)[C@@H]2CCCN2C(=O)[C@H](C(C)C)NC(=O)[C@H]2CCCN2C1=O [Design D11.3, VAL PRO DPRO LEU *DILE DILE DPRO *LEU ILE DILE DPRO] (cyclo(I[dI][dP]VP[dP]L[dNMeI][dI][dP][NMeL]))
AUCExtra (IV 1.00 mg/kg): 3.09% | Plasma concentration (IV 1.00 mg/kg, 0.25 h, individual mice M1, M2, M3, 1 mg/kg): 3305.02 ng/mL and 3779.15 ng/mL and 2973.54 ng/mL | Plasma concentration (IV 1.00 mg/kg, 1 h, individual mice M1, M2, M3, 1 mg/kg): 931.71 ng/mL and 1218.22 ng/mL and 1283.47 ng/mL | Plasma concentration (IV 1.00 mg/kg, 3 h, individual mice M1, M2, M3, 1 mg/kg): 887.86 ng/mL and 328.77 ng/mL and 318.62 ng/mL | Plasma concentration (IV 1.00 mg/kg, 5 h, individual mice M1, M2, M3, 1 mg/kg): 240.02 ng/mL and 271.55 ng/mL and 289.17 ng/mL | Plasma concentration (IV 1.00 mg/kg, 8 h, individual mice M1, M2, M3, 1 mg/kg): 399.46 ng/mL and 124.26 ng/mL and 182.53 ng/mL | Plasma concentration (IV 1.00 mg/kg, 24 h, individual mice M1, M2, M3, 1 mg/kg): 17.65 ng/mL and 30.97 ng/mL and 34.16 ng/mL | health of animals during the study (IV 1 mg/kg, PO 10 mg/kg, SQ 5 mg/kg): healthy throughout the duration of the study | AUCExtra (PO 10.00 mg/kg): 1.91% | Plasma concentration (PO 10.00 mg/kg, 0.08 h, individual mice M1, M2, M3, 10 mg/kg): 47.49 ng/mL and 76.49 ng/mL and 84.94 ng/mL | Plasma concentration (PO 10.00 mg/kg, 0.25 h, individual mice M1, M2, M3, 10 mg/kg): 454 ng/mL and 804.64 ng/mL and 992.29 ng/mL | Plasma concentration (PO 10.00 mg/kg, 0.5 h, individual mice M1, M2, M3, 10 mg/kg): 2858.02 ng/mL and 2832.99 ng/mL and 1880.71 ng/mL | Plasma concentration (PO 10.00 mg/kg, 1 h, individual mice M1, M2, M3, 10 mg/kg): 2950.38 ng/mL and 3417.67 ng/mL and 2525.44 ng/mL | Plasma concentration (PO 10.00 mg/kg, 3 h, individual mice M1, M2, M3, 10 mg/kg): 3249.94 ng/mL and 3660.57 ng/mL and 3578.88 ng/mL | Plasma concentration (PO 10.00 mg/kg, 5 h, individual mice M1, M2, M3, 10 mg/kg): 3313.72 ng/mL and 2427.94 ng/mL and 1866.9 ng/mL | Plasma concentration (PO 10.00 mg/kg, 8 h, individual mice M1, M2, M3, 10 mg/kg): 1232.5 ng/mL and 1764.28 ng/mL and 1439.78 ng/mL | Plasma concentration (PO 10.00 mg/kg, 24 h, individual mice M1, M2, M3, 10 mg/kg): 177.35 ng/mL and 48.47 ng/mL and 59.29 ng/mL | AUCExtra (SC 5.00 mg/kg): 30.33% | Plasma concentration (SC 5.00 mg/kg, 0.08 h, Mean): 10.15 ng/mL | Plasma concentration (SC 5.00 mg/kg, 0.25 h, Mean): 35.04 ng/mL | Plasma concentration (SC 5.00 mg/kg, 0.5 h, Mean): 38.67 ng/mL | Plasma concentration (SC 5.00 mg/kg, 0.5 h, individual mice M1, M2, M3, 5 mg/kg): 23.29 ng/mL and 70.26 ng/mL and 22.46 ng/mL | Plasma concentration (SC 5.00 mg/kg, 1 h, individual mice M1, M2, M3, 5 mg/kg): 52.72 ng/mL and 45.05 ng/mL and 34.59 ng/mL | Plasma concentration (SC 5.00 mg/kg, 3 h, individual mice M1, M2, M3, 5 mg/kg): 141.22 ng/mL and 103.85 ng/mL and 139.25 ng/mL | Plasma concentration (SC 5.00 mg/kg, 24 h, Mean): 50.51 ng/mL | level at 0.08 h (male, Swiss Albino, mouse, plasma, iv, 1 mg/kg, IV 1.00 mg/kg, 0.08 h, individual mice M1, M2, M3, read-out: Plasma concentration): 3320 ng/mL | level at 0.5 h (male, Swiss Albino, mouse, plasma, iv, 1 mg/kg, IV 1.00 mg/kg, 0.5 h, individual mice M1, M2, M3, read-out: Plasma concentration): 2570 ng/mL | level at 5 h (male, Swiss albino, mouse, plasma, sc, 5 mg/kg, SC 5.00 mg/kg, 5 h, individual mice M1, M2, M3, read-out: Plasma concentration): 117 ng/mL | level at 8 h (male, Swiss albino, mouse, plasma, sc, 5 mg/kg, SC 5.00 mg/kg, 8 h, individual mice M1, M2, M3, read-out: Plasma concentration): 153 ng/mL | AUC(0-inf) [1]: 7190 ng·h/mL | AUC(0-t) [1]: 6970 ng·h/mL | C0 [1]: 3960 ng/mL | Vd [1]: 1.12 L/kg | clearance [1]: 2.32 mL/min/kg | AUC(0-inf) [2]: 28800 ng·h/mL | AUC(0-t) [2]: 28200 ng·h/mL | Cmax [2]: 3500 ng/mL | Tmax [2]: 3 h | bioavailability (male, Swiss albino, mouse, plasma, PO 10.00 mg/kg vs IV 1.00 mg/kg, read-out: F (oral bioavailability)): 40% and 40.1% | AUC(0-inf) [3]: 3050 ng·h/mL | AUC(0-t) [3]: 2120 ng·h/mL | Cmax [3]: 148 ng/mL | Tmax [3]: 5 h | half-life (mouse, in vivo, IV 1.00 mg/kg): 5.58 h | MRT last (mouse, in vivo, IV 1.00 mg/kg): 4.64 h | MRT last (mouse, in vivo, PO 10.00 mg/kg): 6.32 h | MRT last (mouse, in vivo, SC 5.00 mg/kg): 10.7 h
